Assay results from US7196192B2, “28-epirapalogs” (Ariad Gene Therapeutics, Inc., priority 1999, dated 2007).
Like-named read-outs stand apart in the source and are kept apart here.

Key:
FKBP = FKBP (Homo sapiens, UniProt P62942); assay: FKBP competitive binding assay based on fluorescence polarization (FP); settings: competitive FP binding
Experimental: A Competitive Binding FP Assay is described in detail in WO99/36553 and WO96/41865. That assay permits the in vitro measurement of an IC50 value for a given compound which reflects its ability to bind to an FKBP-protein in competition with a labeled FKBP ligand, such as, for example, FK506.
(§1) A diverse group of C7-modified 28-epirapalogs were prepared as described in Example 4.

[1] = molecular target: T1, transcriptional switch components containing FKBP and 2098L mutant FRB domains (Homo sapiens, UniProt P42345+P62942); assay: transcription assay in engineered HD1080 cells expressing SEAP (txn 2098L); type: cell-based; settings: for TXN 2098L peak relative to rapamycin peak: superscript mark on EC50 cell
T1 construct: transcriptional switchcomponents containing FKBP and 2098L mutant FRB domains, respectively; fused on or other part: The two switch components are separate chimeric proteins; Neither is given for this cell line
Text: The ability of the rapalogs to multimerize chimeric proteins may be measured in cell-based assays by measuring the occurrence of an event triggered by such multimerization. For instance, one may use cells containing and capable of expressing DNA encoding a first chimeric protein comprising one or more FKBP-domains and one or more effector domains as well as DNA encoding a second chimeric protein containing an FRB domain and one or more effector domains capable, upon multimerization, of actuating a biological response. We prefer to use cells which further contain a reporter gene under the transcriptional control of a regulatory element (i.e., promoter) which is responsive to the multimerization of the chimeric proteins. The design and preparation of illustrative components and their use in so engineered cells is described in WO99/36553 and WO96/41865 and the other international patent applications referred to in this and the foregoing section. (See also W099/10510 for additional guidance on the design, assembly and delivery of nucleic acids to render cells and animals responsive to rapalogs of interest and for additional guidance on applications of such systems.) The cells are grown or maintained in culture. A rapalog is added to the culture medium and after a suitable incubation period (to permit gene expression and secretion, e.g. several hours or overnight) the presence of the reporter gene product is measured. Positive results, i.e., multimerization, correlates with transcription of the reporter gene as observed by the appearance of the reporter gene product. The reporter gene product may be a conveniently detectable protein (e.g. by ELISA) or may catalyze the production of a conveniently detectable product (e.g. colored). Materials and methods for producing appropriate cell lines for conducting such assays are disclosed in the international patent applications cited above in this section.
2. EC50 values of the various compounds was measured in a transcription assay using genetically engineered HD1080 cells which constitutively express transcriptional switch components containing FKBP and 2098L mutant FRB domains, respectively and which regulatably express secreted alkaline phosphatase (SEAP) in the presence of a compound which multimerizes the switch components. The assay is a literature assay. See WO 99/36553, e.g. Example 12, pages 120–121 (& FIG. 2D) […]

murine splenocyte = murine splenocyte assay for immunosuppressive activity; type: cell-based; settings: read-out: Splenocyte IC50
Experimental: 3. Conventional murine splenocyte assay for immunosuppressive activity.
as §1

[2] = FKBP IC50 (nM), methods of Example 2.5
[3] = read-out: TXN 2098L EC50, cellular transcription assay, methods of Example 2.5
[4] = Mus musculus, Splenocyte, mouse splenocyte assay, methods of Example 2.5
[5] = methods of Example 2.5, read-out: FKBP IC50
[6] = cellular transcription assay, methods of Example 2.5, read-out: TXN 2098L EC50
[7] = mouse splenocyte assay, methods of Example 2.5
[8] = fluorescein-labelled FK506 probe (AP1491), read-out: FKBP binding IC50
[9] = HD1080 cells, FKBP and 2098L mutant FRB switch, SEAP reporter, read-out: txn 2098L EC50
[10] = Mus musculus, Splenocyte, murine splenocyte assay, immunosuppressive activity

Chain of FKBP (P62942 whole entry): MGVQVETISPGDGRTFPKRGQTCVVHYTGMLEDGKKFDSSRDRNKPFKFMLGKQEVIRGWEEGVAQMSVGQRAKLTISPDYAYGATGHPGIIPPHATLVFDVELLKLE
T1 sequence (P62942 2-108 limits assumed, stated change not applied, other chains not shown): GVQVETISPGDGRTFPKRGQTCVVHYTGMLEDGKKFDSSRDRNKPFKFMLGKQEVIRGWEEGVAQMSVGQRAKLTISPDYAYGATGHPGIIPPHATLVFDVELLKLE

Row | IC50 (murine splenocyte; [4]) [nM] | Structure (SMILES) | TXN 2098L peak relative to rapamycin peak [1] | IC50 (FKBP; [5]) [nM] | EC50 [1, 6] [nM] | IC50 (murine splenocyte; [7]) [nM] | also measured
1 | – | CO[C@@H]1C[C@H](C[C@@H](C)[C@@H]2CC(=O)[C@H](C)/C=C(\C)[C@H](O)[C@@H](OC)C(=O)[C@H](C)C[C@H](C)/C=C/C=C/C=C(\C)[C@@H](N(C)C(=O)OCc3ccccc3)C[C@@H]3CC[C@@H](C)[C@@](O)(O3)C(=O)C(=O)N3CCCC[C@H]3C(=O)O2)CC[C@H]1O [28-epi-7S-N-Me-benzylcarbamate] | – | 40 | 9 | 158 | –
2 | 140 | CO[C@@H]1C[C@H](C[C@@H](C)[C@@H]2CC(=O)[C@H](C)/C=C(\C)[C@H](O)[C@@H](OC)C(=O)[C@H](C)C[C@H](C)/C=C/C=C/C=C(\C)[C@@H](N(C)S(C)(=O)=O)C[C@@H]3CC[C@@H](C)[C@@](O)(O3)C(=O)C(=O)N3CCCC[C@H]3C(=O)O2)CC[C@H]1O [28-epi-7S-N-Me-methanesulfonamide] | (+) (peak was >125% rapamycin peak) | 21 | 27 | – | –
3 | – | CO[C@@H]1C[C@H](C[C@@H](C)[C@@H]2CC(=O)[C@H](C)/C=C(\C)[C@H](O)[C@@H](OC)C(=O)[C@H](C)C[C@H](C)/C=C/C=C/C=C(\C)[C@@H](N(C)C(=O)Oc3ccc(C)cc3)C[C@@H]3CC[C@@H](C)[C@@](O)(O3)C(=O)C(=O)N3CCCC[C@H]3C(=O)O2)CC[C@H]1O [28-epi-7S-N-Me-p-tolylcarbamate] | – | 54 | 25 | 50 | –
4 | 3450 | CO[C@@H]1C[C@H](C[C@@H](C)[C@@H]2CC(=O)[C@H](C)/C=C(\C)[C@H](O)[C@@H](OC)C(=O)[C@H](C)C[C@H](C)/C=C/C=C/C=C(\C)[C@@H](NC(=O)OCc3ccccc3)C[C@@H]3CC[C@@H](C)[C@@](O)(O3)C(=O)C(=O)N3CCCC[C@H]3C(=O)O2)CC[C@H]1O [28-epi-7S-benzylcarbamate] | – | 40 | 15 | – | –
5 | 152 | CCCCS(=O)(=O)N[C@H]1C[C@@H]2CC[C@@H](C)[C@@](O)(O2)C(=O)C(=O)N2CCCC[C@H]2C(=O)O[C@H]([C@H](C)C[C@@H]2CC[C@@H](O)[C@H](OC)C2)CC(=O)[C@H](C)/C=C(\C)[C@H](O)[C@@H](OC)C(=O)[C@H](C)C[C@H](C)/C=C/C=C/C=C/1C [28-epi-7S-butanesulfonamide] | (+) (peak was >125% rapamycin peak) | 9.2 | 11 | – | –
6 | 598 to 1060 | COc1ccc([C@H]2C[C@@H]3CC[C@@H](C)[C@@](O)(O3)C(=O)C(=O)N3CCCC[C@H]3C(=O)O[C@H]([C@H](C)C[C@@H]3CC[C@@H](O)[C@H](OC)C3)CC(=O)[C@H](C)/C=C(\C)[C@H](O)[C@@H](OC)C(=O)[C@H](C)C[C@H](C)/C=C/C=C/C=C/2C)c(OC)c1 [28-epi-7S-dimethoxyphenyl] | – | 31 | 50 | – | –
7 | – | COC1CC(CC(C)C2CC(=O)C(C)C=C(C)C(O)C(OC)C(=O)C(C)CC(C)C=CC=CC=C(C)C(NS(=O)(=O)N(C)C)CC3CCC(C)C(O)(O3)C(=O)C(=O)N3CCCCC3C(=O)O2)CCC1O (stereo not drawn) [28-epi-7S-dimethylsulfamide] | (+) (peak was >125% rapamycin peak) | 13 | 20 | 879 | –
8 | 7 | CO[C@@H]1C[C@H](C[C@@H](C)[C@@H]2CC(=O)[C@H](C)/C=C(\C)[C@H](O)[C@@H](OC)C(=O)[C@H](C)C[C@H](C)/C=C/C=C/C=C(\C)[C@@H](NS(C)(=O)=O)C[C@@H]3CC[C@@H](C)[C@@](O)(O3)C(=O)C(=O)N3CCCC[C@H]3C(=O)O2)CC[C@H]1O [28-epi-7S-methanesulfonamide] | – | 16 | 24 | – | –
9 | – | CO[C@@H]1C[C@H](C[C@@H](C)[C@@H]2CC(=O)[C@H](C)/C=C(\C)[C@H](O)[C@@H](OC)C(=O)[C@H](C)C[C@H](C)/C=C/C=C/C=C(\C)[C@@H](NS(=O)(=O)N(C)c3ccccc3)C[C@@H]3CC[C@@H](C)[C@@](O)(O3)C(=O)C(=O)N3CCCC[C@H]3C(=O)O2)CC[C@H]1O [28-epi-7S-methylphenylsulfamide] | – | 11 | 28 | 564 | –
10 | – | COC1CC(CC(C)C2CC(=O)C(C)C=C(C)C(O)C(OC)C(=O)C(C)CC(C)C=CC=CC=C(C)C(c3ccc(C)s3)CC3CCC(C)C(O)(O3)C(=O)C(=O)N3CCCCC3C(=O)O2)CCC1O (stereo not drawn) [28-epi-7S-methylthiophene] | – | 86 | 25 | 170 to 242 | –
11 | – | COC1CC(CC(C)C2CC(=O)C(C)C=C(C)C(O)C(OC)C(=O)C(C)CC(C)C=CC=CC=C(C)C(NC(=O)Oc3ccccc3)CC3CCC(C)C(O)(O3)C(=O)C(=O)N3CCCCC3C(=O)O2)CCC1O (stereo not drawn) [28-epi-7S-phenylcarbamate] | (+) (peak was >125% rapamycin peak) | 18 | 14 | > 5000 | –
12 | 478 to 2500 | CO[C@@H]1C[C@H](C[C@@H](C)[C@@H]2CC(=O)[C@H](C)/C=C(\C)[C@H](O)[C@@H](OC)C(=O)[C@H](C)C[C@H](C)/C=C/C=C/C=C(\C)[C@@H](Oc3ccccc3)C[C@@H]3CC[C@@H](C)[C@@](O)(O3)C(=O)C(=O)N3CCCC[C@H]3C(=O)O2)CC[C@H]1O [28-epi-7S-phenyloxy] | (−) (peak was <80% rapamycin peak) | 36 | 8 | – | –
13 | – | COCO[C@@H]1CC[C@@H](C[C@@H](C)[C@@H]2CC(=O)[C@H](C)/C=C(\C)[C@H](O)[C@@H](OC)C(=O)[C@H](C)C[C@H](C)/C=C/C=C/C=C(\C)[C@@H](OC)C[C@@H]3CC[C@@H](C)[C@@](O)(O3)C(=O)C(=O)N3CCCC[C@H]3C(=O)O2)C[C@H]1OC [43-O-MOM-28-epirapamycin] | – | – | – | – | IC50 (FKBP; [8]): 27 nM; EC50 [1, 9]: 7 nM; IC50 (murine splenocyte; [10]): 0.6 to 1.6 nM
14 | – | C=CCO[C@@H]1CC[C@@H](C[C@@H](C)[C@@H]2CC(=O)[C@H](C)/C=C(\C)[C@H](O)[C@@H](OC)C(=O)[C@H](C)C[C@H](C)/C=C/C=C/C=C(\C)[C@@H](OC)C[C@@H]3CC[C@@H](C)[C@@](O)(O3)C(=O)C(=O)N3CCCC[C@H]3C(=O)O2)C[C@H]1OC [43-O-allyl-28-epirapamycin] | – | – | – | – | IC50 (FKBP; [8]): 65 nM; EC50 [1, 9]: 8 nM; IC50 (murine splenocyte; [10]): 641 to 684 nM

Row | Structure (SMILES) | IC50 (murine splenocyte; [4]) [nM] | TXN 2098L peak relative to rapamycin peak [1] | IC50 (FKBP; [5]) [nM] | EC50 [1, 6] [nM] | IC50 (murine splenocyte; [7]) [nM] | also measured
15 | CCN([C@H]1C[C@@H]2CC[C@@H](C)[C@@](O)(O2)C(=O)C(=O)N2CCCC[C@H]2C(=O)O[C@H]([C@H](C)C[C@@H]2CC[C@@H](O)[C@H](OC)C2)CC(=O)[C@H](C)/C=C(\C)[C@H](O)[C@@H](OC)C(=O)[C@H](C)C[C@H](C)/C=C/C=C/C=C/1C)S(C)(=O)=O [28-epi-7S-N-Et-methanesulfonamide] | 1360 | (+) (peak was >125% rapamycin peak) | – | – | – | IC50 (FKBP; [2]): 31 nM; EC50 [1, 3]: 8 nM
16 | C=CCO[C@H]1C[C@@H]2CC[C@@H](C)[C@@](O)(O2)C(=O)C(=O)N2CCCC[C@H]2C(=O)O[C@H]([C@H](C)C[C@@H]2CC[C@@H](O)[C@H](OC)C2)CC(=O)[C@H](C)/C=C(\C)[C@H](O)[C@@H](OC)C(=O)[C@H](C)C[C@H](C)/C=C/C=C/C=C/1C [28-epi-7S-allyloxy] | 1800 | – | – | – | – | IC50 (FKBP; [2]): 18 nM; EC50 [1, 3]: 8 nM
17 | CCOC(=O)N[C@H]1C[C@@H]2CC[C@@H](C)[C@@](O)(O2)C(=O)C(=O)N2CCCC[C@H]2C(=O)O[C@H]([C@H](C)C[C@@H]2CC[C@@H](O)[C@H](OC)C2)CC(=O)[C@H](C)/C=C(\C)[C@H](O)[C@@H](OC)C(=O)[C@H](C)C[C@H](C)/C=C/C=C/C=C/1C [28-epi-7S-ethylcarbamate] | > 5000 | – | – | – | – | IC50 (FKBP; [2]): 13 nM; EC50 [1, 3]: 10 nM
